Assay results taken from article PMC10223284, “Category-Based Toxicokinetic Evaluations of Data-Poor Per- and Polyfluoroalkyl Substances (PFAS) using Gas Chromatography Coupled with Mass Spectrometry” (Toxics, 2023).
Values joined by “and” are separate entries in the source; they are usually repeats but may differ in a detail not shown here. Equal values may be shown once.

Columns and labels:
human plasma [1] = assay: Chemical stability in plasma over the UC assay time course (T5hr/T1hr); conditions: for Time 1 hr / Time 1 hr, Run-specific Avg: amount measured in plasma sample at 1 hr; for Time 1 hr / Time 5 hr: replicates A, B, C; for Time 1 hr / Time 1 hr, Run-specific Avg / Time 5 hr / Time 5 hr, Run-specific Avg: unit not given; for Time 1 hr, Run-specific Avg / Time 5 hr, Run-specific Avg: run average; for Time 5 hr / Time 5 hr, Run-specific Avg: amount measured in plasma sample at 5 hr; for % remaining_PPB: chemical remaining in plasma over the PPB assay time course, NS = no significant loss; for PPB_Stab_Fail: flag for stability failure in the plasma protein binding assay (1 = fail, 0 = pass); for Fstable.Med: median fraction stable in plasma, UC assay Level4; for Stability (T5hr/ T1hr), replicates A, B, C: single replicate of one UC run
human plasma [2] = assay: Ultracentrifugation (UC) plasma protein binding assay, fraction unbound in plasma (fup); conditions: for Aqueous Fraction / Aqueous Fraction, Run-specific Avg: amount measured in aqueous fraction after ultracentrifugation, unit not given; for Aqueous Fraction: replicates A, B, C; for Aqueous Fraction, Run-specific Avg: run average; for Fup.Med: median fraction unbound in plasma; for Fup.Med / Fup.point: UC assay Level4; for Fup.point: point estimate of fraction unbound in plasma; for Fraction Unbound (fu), replicates A, B, C: single replicate of one UC run (aqueous fraction / Time 5 hr); for Mean fu: fraction unbound in human plasma, some values based on eLOQ
[3] = Abiotic loss in negative controls of the hepatocyte clearance assay (cell-free media, metabolically inactivated hepatocytes); assay type: in vitro ADME; conditions: flag for stability failure in hepatocyte clearance assay controls (1 or Fst = fail, 0 = pass)
Method: The hepatic metabolic stability assay measures the loss of a parent compound over time in a substrate-depletion approach. Briefly, hepatocyte suspensions, after a viability assessment, were diluted in complete William’s medium E (containing dexamethasone and cell maintenance cocktail B) prior to addition to 96-well polypropylene plates containing an equal volume of media spiked with the test compound (1 μM assay concentration; assay cell density = 50,000 cells/100 μL) and maintained at 37 °C with shaking. At each time point, relevant plates were crashed with an equal volume of ice-cold acetonitrile, centrifuged, and supernatant transferred to a new plate prior to storage at <−70 °C until quantitative analysis. Controls, run in parallel, included cell-free (i.e., media only) and metabolically inactivated hepatocytes to evaluate abiotic chemical stability in the aqueous media matrix with and without cellular protein. In preliminary runs, these controls were run at T0 and T240 only. If significant instability was noted, the hepatocyte clearance assay was rerun, including cell-free samples at each time point and metabolically inactivated hepatocytes at selected time points.
Negative controls, including media only and metabolically inactivated hepatocyte controls, were included to monitor abiotic loss (i.e., background clearance) during the assay. Where significant compound loss occurred using the analysis described above, background clearance rates were calculated and used to background-adjust hepatic metabolic clearance rates. Where chemicals were cleared prior to the end of the analysis, at 240 min (T240), the corresponding negative control timepoint was used for background subtraction. Any chemicals displaying a 50% or more abiotic loss at T120 were deemed unstable and were excluded from further analyses.

in vitro = conditions: both, human, plasma
[4] = mean T5hr/T1hr ratio in plasma over all replicates/runs
[5] = Fraction Unbound (fu), Run-specific Avg, average of one UC run
[6] = Fraction Unbound (fu), individual replicates A, B, C of the UC run named in c8
[7] = Mean Fu, mean fraction unbound in human plasma over all UC replicates/runs
[8] = Mean fu, fraction unbound in human plasma, ultracentrifugation, some values based on eLOQ
[9] = average of one UC run (run date in line above)
[10] = mean T5hr/T1hr ratio over all replicates and runs, plasma
[11] = Fraction Unbound (fu), Run-specific Avg, average of one UC run (run date in line above)
[12] = Mean Fu, mean fraction unbound over all replicates and runs, UC assay, human plasma
[13] = Fraction Unbound (fu), replicates A, B, C, single replicate of one UC run (aqueous fraction / Time 5 hr)

## FC(F)(Br)C(F)(F)C(F)(F)C(F)(F)C(F)(F)C(F)(F)Br [1,6-Dibromododecafluorohexane]
Human plasma [1]
  Time 1 hr: 8781.60 and 9238.06 and 11600.01
  Time 1 hr, Run-specific Avg: 9873.23
  Time 5 hr: 4002.39 and 3732.26 and 4390.36
  Time 5 hr, Run-specific Avg: 3867.32
  % remaining_PPB: 40%
  PPB_Stab_Fail: 0
  Fstable.Med: 0.312
Human plasma [1]; average of one UC run
  Stability (T5hr/ T1hr), Run-specific Avg: 0.392
Human plasma [1]; [4]
  Mean Stability: 0.415
Human plasma [2]
  Aqueous Fraction: 16.97
  Aqueous Fraction, Run-specific Avg: 16.97
  Fup.Med: 1.78E-09
  Fup.point: 0
Human plasma [2]; human plasma, 10 μM, ultracentrifugation, 37 °C
  fup: 0.004
[3]
  Hep_Stab_Fail: 1
In vitro; [5]
  fraction unbound: 0.00422
In vitro; [6]
  fraction unbound: 0.00424
In vitro; [7]
  fraction unbound: 0.00422
In vitro; [8]
  fraction unbound: 0.004

## FC(F)(I)C(F)(F)C(F)(F)C(F)(F)C(F)(F)C(F)(F)I [1,6-Diiodoperfluorohexane]
Human plasma [1]
  Time 1 hr: 8774.08 and 7745.84 and 7383.58
  Time 1 hr, Run-specific Avg: 7967.83
  Time 5 hr: 5893.98 and 5567.71 and 5583.03
  Time 5 hr, Run-specific Avg: 5730.84
  % remaining_PPB: 72%
  PPB_Stab_Fail: 0
  Fstable.Med: 0.577
  Stability (T5hr/ T1hr), replicates A, B, C: 0.7185 and 0.686 and 0.6511
Human plasma [1]; average of one UC run
  Stability (T5hr/ T1hr), Run-specific Avg: 0.719
Human plasma [1]; [9]
  Stability (T5hr/ T1hr), Run-specific Avg: 0.687
Human plasma [1]; [4]
  Mean Stability: 0.718
Human plasma [1]; [10]
  Mean Stability: 0.685
Human plasma [2]
  Aqueous Fraction: 94.9667 and 176.609 and 162.022
  Aqueous Fraction, Run-specific Avg: 144.53
  Fup.Med: 0.295
  Fup.point: 0.267
  Fraction Unbound (fu), replicates A, B, C: 0.5494 and 0.308 and 0.227
[3]
  Hep_Stab_Fail: 1
In vitro; [5]
  fraction unbound: 0.0256
In vitro; [11]
  fraction unbound: 0.36
In vitro; [6]
  fraction unbound: 0.0161
In vitro; [12]
  fraction unbound: 0.361
In vitro; [8]
  fraction unbound: 0.026

## C=C(C)C(=O)OCC(F)(F)C(F)(F)C(F)(F)C(F)F [1H,1H,5H-Perfluoropentyl methacrylate]
Human plasma [1]
  Time 1 hr: 1599.93 and 1543.59 and 1278.91
  Time 1 hr, Run-specific Avg: 1474.15
  Time 5 hr: 75.2443 and 72.767 and 69.0294
  Time 5 hr, Run-specific Avg: 74.01
  % remaining_PPB: 0.01%
  PPB_Stab_Fail: 1
  Fstable.Med: 0.00623
Human plasma [1]; average of one UC run
  Stability (T5hr/ T1hr), Run-specific Avg: 0.050
Human plasma [1]; [4]
  Mean Stability: 0.050
Human plasma [2]
  Aqueous Fraction: 25.8202 and 12.2631 and 16.0467
  Aqueous Fraction, Run-specific Avg: 18.04
  Fup.Med: 0.267
  Fup.point: 0.249
[3]
  Hep_Stab_Fail: 1
In vitro; [5]
  fraction unbound: 0.25
In vitro; [7]
  fraction unbound: 0.248

## OCCCC(F)(F)C(F)(F)C(F)(F)C(F)(F)C(F)(F)C(F)(F)C(F)(F)C(F)(F)F [3-(Perfluorooctyl)propanol]
Human plasma [1]; [9]
  Stability (T5hr/ T1hr), Run-specific Avg: 0.894
Human plasma [1]
  PPB_Stab_Fail: 0
  Fstable.Med: 0.272
  Stability (T5hr/ T1hr), replicates A, B, C: 0.9156 and 0.9452 and 0.8196
Human plasma [1]; [10]
  Mean Stability: 0.893
Human plasma [2]
  Fup.Med: 0.0348
  Fup.point: 0.0352
  Fraction Unbound (fu), replicates A, B, C: 0.03475 and 0.04477
[3]
  Hep_Stab_Fail: 1
In vitro; [13]
  fraction unbound: 0.0277
In vitro; [12]
  fraction unbound: 0.036
In vitro; [8]
  fraction unbound: 0.0357

## OCCCC(F)(F)C(F)(F)C(F)(F)F [3-(Perfluoropropyl)propanol]
Human plasma [1]; [9]
  Stability (T5hr/ T1hr), Run-specific Avg: 0.890
Human plasma [1]
  PPB_Stab_Fail: 0
  Fstable.Med: 0.2
  Stability (T5hr/ T1hr), replicates A, B, C: 0.858 and 0.887 and 0.929
Human plasma [1]; [10]
  Mean Stability: 0.892
Human plasma [2]
  Fup.Med: 0.202
  Fup.point: 0.205
  Fraction Unbound (fu), replicates A, B, C: 0.224 and 0.207
[3]
  Hep_Stab_Fail: 1
In vitro; [11]
  fraction unbound: 0.2
In vitro; [13]
  fraction unbound: 0.179
In vitro; [12]
  fraction unbound: 0.203
In vitro; [8]
  fraction unbound: 0.203

## C=C(C)C(=O)OCCC(F)(F)C(F)(F)C(F)(F)C(F)(F)C(F)(C(F)(F)F)C(F)(F)F [(Perfluoro-5-methylhexyl)ethyl 2-methylprop-2-enoate]
Human plasma [1]
  % remaining_PPB: 63.6%
  Fstable.Med: 0.43
Human plasma [2]
  Fup.Med: 4.30E-06
  Fup.point: 0.0603
[3]
  Hep_Stab_Fail: 1
In vitro; [8]
  fraction unbound: 0.0603

## OCC(F)(F)C(F)(F)C(F)(F)CO [Hexafluoroamylene]
Human plasma [1]
  Time 1 hr: 5856.63 and 5544.86 and 5920.14
  Time 1 hr, Run-specific Avg: 5773.88
  Time 5 hr: 3672.88 and 3626.61 and 3711.47
  Time 5 hr, Run-specific Avg: 3649.75
  Fstable.Med: 0.988
Human plasma [1]; average of one UC run
  Stability (T5hr/ T1hr), Run-specific Avg: 0.632
Human plasma [1]; [4]
  Mean Stability: 0.636
Human plasma [2]
  Aqueous Fraction: 160.563 and 273.771 and 229.145
  Aqueous Fraction, Run-specific Avg: 221.16
  Fup.Med: 0.627
  Fup.point: 0.675
In vitro; [5]
  fraction unbound: 0.06
In vitro; [6]
  fraction unbound: 0.0437
In vitro; [7]
  fraction unbound: 0.06

## N=C(N)C(F)(F)C(F)(F)C(F)(F)C(F)(F)C(F)(F)C(F)(F)C(F)(F)F [Perfluorooctanamidine]
Human plasma [1]; [9]
  Stability (T5hr/ T1hr), Run-specific Avg: 0.890
Human plasma [1]
  % remaining_PPB: 67%
  PPB_Stab_Fail: 0
  Fstable.Med: 0.0291
  Stability (T5hr/ T1hr), replicates A, B, C: 0.858 and 0.887 and 0.929
Human plasma [1]; [10]
  Mean Stability: 0.892
Human plasma [2]; ultracentrifugation
  Mean fu: 0.0253
Human plasma [2]
  Fup.Med: 4.95E-09
  Fup.point: 0.0261
[3]
  Hep_Stab_Fail: 1

## FC(F)(F)COC(OCC(F)(F)F)OCC(F)(F)F [tris(Trifluoroethoxy)methane]
Human plasma [1]; [9]
  Stability (T5hr/ T1hr), Run-specific Avg: 0.660
Human plasma [1]
  % remaining_PPB: 66%
  PPB_Stab_Fail: 0
  Fstable.Med: 0.362
  Stability (T5hr/ T1hr), replicates A, B, C: 0.6799 and 0.6407 and 0.6662
Human plasma [1]; [10]
  Mean Stability: 0.662
Human plasma [2]; [9]
  Fraction Unbound (fu), Run-specific Avg: 0.17
Human plasma [2]; ultracentrifugation
  Mean fu: 0.1728
Human plasma [2]; mean fraction unbound over all replicates and runs, UC assay, human plasma
  Mean Fu: 0.173
Human plasma [2]
  Fup.Med: 0.132
  Fup.point: 0.0994
  Fraction Unbound (fu), replicates A, B, C: 0.186 and 0.1626 and 0.1699
[3]
  Hep_Stab_Fail: 1
